Reference: patent US11839615B2, “Compounds and methods for treating addiction and related disorders” (Astrocyte Pharmaceuticals, Inc., priority 2018, dated 2023)

How the values were obtained:
[1] = system: photothrombosis-induced stroke; assay: Photothrombotic induced model of stroke, lesion volume by TTC staining; format: in vivo, mouse
[2] = system: astrocytes; assay: Determination of ATP levels in astrocytes (luciferin-luciferase kit), control or GLUD1 shRNA; format: cell-based
Experimental: FIG. 7: GLUD1 Knockdown (KD) in astrocytes blocks P2Y1R and A3R-stimulated increases in ATP. A, B) Cells were treated with P2Y1R agonist MRS2365 for 20 mins in either normal glucose medium (A) or a glucose-free, galactose (B) supplemented media. Galactose forces cells to use oxidative phosphorylation for energy metabolism. […] Intracellular ATP levels were measured with a luciferin-luciferase kit.
P2Y1R and A3R agonists increased mitochondrial ATP production in astrocytes in a manner that was dependent on GLUD1 expression. One possible hypothesis is that glutamate catabolism into α-KG is mediated by GLUD1, which is enhanced by Ca^2+ dependent stimulation of the ICDH and α-KGDH in the TCA cycle. To test this hypothesis, GLUD1 expression levels were reduced in astrocyte cultures by incubating cells with specific shRNA. […] We repeated these experiments in the presence of galactose, a carbon source that forces cells to generate ATP though oxidative phosphorylation, since glycolysis of galactose is ATP neutral.
Cells were transduced with shRNA lentivirus constructs obtained from Santa Cruz (glud1 #145446-V, for Scrambled #108080). Cells were then seeded at single cell/well densities in a 96-well dish and selected for with puromycin. Clones were grown and tested for knockdown by western blot.
Astrocytes were plated at a density of 3000-5000 cells/well in a white, opaque-bottom 96-well dish (Corning). If cells were tested in galactose medium, they were seeded in galactose medium, and left for a minimum of 16 hours before subjected to treatment. Galactose medium was made with glucose-, pyruvate-, phenol-, and glutamine-free DMEM (Gibco) which was then supplemented with 0.9 mg/ml galactose (Sigma), pyruvate (Quality biological, Inc), and 10% dialyzed FBS (Gibco). Treatments were performed for 20 min unless otherwise stated and concentrations of drugs described elsewhere. Drugs used: MRS2365, MRS2500, AST-004, 3-Propyl-6-ethyl-5-[(ethylthio)carbonyl]-2 phenyl-4-propyl-3-pyridine carboxylate (MRS1523) (Tocris Bioscience), sodium dichloroacetate (DCA) (Sigma Aldrich), Oligomycin (Sigma Aldrich), 1-(2-(2-tert-Butylphenoxy)pyridin-3-yl)-3-(4-(trifluoromethoxy)phenyl)urea (BPTU) (Millipore), and Ruthenium 360 (Cal Biochem). Next, media was removed from cells, and 100 μl fresh media immediately added. Then, 95 μl of mixed luminescence substrate from the ATPlite 1-Step kit were added (Perkin-Elmer). Plates were wrapped in aluminum foil and shaken for 3 min on a plate rotator before reading on a luminometer. Readings were normalized to protein as determined by Coomassie Plus Bradford assay (Thermo Fisher). All statistics were analyzed using GraphPad Prism software.

[3] = system: traumatic brain injury (TBI); assay: Traumatic brain injury (TBI), GFAP expression by Western blot; details: for TBI induced increases in GFAP expression: treatment 30 min post-TBI, ipsilateral brain homogenates and plasma at day 7, vs TBI untreated
Experimental: Mice underwent sham or TBI (on Ipsilateral side of brain) and received treatments as labeled 30 min post-TBI. Plasma was obtained from mice at 7 days post-injury, then sacrificed to obtain brain homogenates from the ipsilateral and contralateral hemispheres (middle third). Western blot analysis were normalized to actin. (A and C) Representative blots are shown for Ipsilateral brain homogenates and the plasma at day 7. (B and D) Data were pooled from 3 distinct experiments (N=number of mice per treatment) and plotted as bar histograms, shown as mean of control+/−SEM. *p<0.05 and ** p<0.01 from TBI untreated (dark gray bar).

[4] = system: astrocytes of transgenic mice expressing the Luciferase-reporter gene (GFAP promoter); assay: In vivo bioluminescent imaging of ATP in astrocytes after blunt TBI; set-up: species or system mouse; details: IP injection, two to 4 days after TBI, vs vehicle
Experimental: FIG. 5: In Vivo Bioluminescent Imaging indicates AST-004 increases ATP. A) Transgenic mice expressing the Luciferase-reporter gene in astrocytes (GFAP promoter) were subjected to blunt TBI (Closed Cortical Impact). Two to 4 days after the initial trauma, mice were IP injected with a synthetic D-luciferin analogue (Cytluc1, 100 ul). Bioluminescent signals were recorded with an IVIS Spectrum Imager, 5 min after Cycluc1 injection (green arrow). Mice were then IP injected with either vehicle or AST-004 at […] (blue arrow), the photon flux immediately measured and then compared to the photon flux at 20 minutes (red arrow).
Transgenic mice expressing the Luciferase-reporter gene in astrocytes (GFAP promoter, Dual-Glo mice, Jackson laboratories) were subjected to blunt TBI (Closed Cortical Impact). Two to 4 days after the initial trauma, mice were IP injected with a synthetic D-luciferin analogue (Cycluc 1) and bioluminescent signals recorded on an IVIS Spectrum Imager (FIG. 5A).

[5] = system: astrocytes (C8-D1A); assay: Oxygen consumption rate (OCR), Seahorse; format: cell-based
Experimental: FIG. 2: Oxygen Consumption Rate (OCR) is increased by purinergic agonist AST-004. Cultured astrocytes were plated on a standard Seahorse dish (24 well). After establishing basal OCR, purinergic agonist AST-004 or control (antagonist) was added at first arrow. […] The final addition of mitochondrial inhibitors uncovered non-mitochondrial OCR sources.
We previously reported that any agonist stimulating IP3-mediated Ca^2+ increases in astrocytes increased ATP production in astrocytes (1). […] Minimal change was observed under control injections. […] Addition of rotenone and antimycin uncovered non-mitochondrial sources of oxygen consumption, which was subtracted off from all measurements prior to calculations.
OCR was measured to calculate mitochondrial respiration and performed with a Seahorse XF96 extracellular flux analyzer. A 96-well system measures OCR from a monolayer of cultured intact cells, at intervals of ˜5 minutes. Astrocytes were plated on Seahorse microplates at least 2 days prior to OCR measurements. […] Injection of rotenone and antimycin, inhibitors of complex I and III respectively, uncover non-mitochondrial oxygen consumption.

[6] = system: cultured astrocytes; assay: Ca2+ measurements in dye-loaded (Cal520) cultured astrocytes; format: cell-based, mouse
Experimental: FIG. 1: AST-004 increases intracellular Ca^2+ in cultured astrocytes. A) Image of resting Ca^2+ levels in dye-loaded (Cal520) astrocytes. B) Spatio-temporal plot of Ca^2+ fluorescence for the vertical line in panel A. AST-004 was added at 2 min. Note the oscillatory Ca^2+ responses for over 6 minutes. C) Plot of integrated Ca^2+ fluorescence intensities (DF/F0) at the indicated A3R agonist concentrations. Values are mean+/−SEM (data pooled from 3 experiments at each concentration). Images were acquired on the Nikon Sweptfield confocal microscope.
The low level stimulation of Ca2+ release persisted throughout the recording (FIG. 1A,B). It was not blocked by pertussis toxin treatment, consistent with Gq-coupling. The integrated Ca^2+ response was also dose-dependent (FIG. 1C) and present in astrocytes cultured from mouse, rat, pig and human brain tissue.
Protocol was modified from McCarthy et al., 1980 (4). Briefly, mice were anesthetized with isoflurane then cervically dislocated. Brains were quickly removed and chopped in trypsin, and allowed to incubate at 37° C. for 30 mins. DMEM/F-12 Media with 10% FCS and primocin was added and brains were triturated to homogenization and filtered through […] mesh, and seeded into culture flasks. The next day, homogenates were transferred to a new flask, and previous flasks had new media added. Cells were grown for 3-4 weeks, with DMEM/F-12 media changes every 3-4 days until cells were 70% confluent.
Ca^2+ activity was imaged as previously described (5). In brief, astrocytes were seeded on glass cover slips 3 and 4 nights before each experiment. Culture dishes were incubated with a fluorescent Ca^2+ sensitive dye (10 μM, Cal520, cell permeant, Abcam) 30 min prior to the experiment. Images were acquired with a confocal laser-scanning microscope at the rate of 1.5 images/s. Data were obtained in recording buffer (120 mM NaCl, 4.5 mM KCl, 1 mm CaCl2), 2 mM MgCl2, 10 mM HEPES, pH 7.4) at room temperature. Images were analyzed with Image J and NIS Elements.

[7] = system: cocaine self-administering mice; assay: Cocaine self-administration; format: in vivo, mouse; details: osmotic minipump, 100 μL at 2.78 mM
Experimental: Data that are normalized to each mouse's individual cocaine intake at baseline. Mice were trained to self-administer cocaine (0.5 mg/kg/infusion) on a fixed ratio 3 schedule in 2-hr daily sessions. After their intake stabilized (baseline) mice were implanted with osmotic minipumps on day 0 either containing saline (filled circles) or the drug AST-004 (open circles), n=5 mice in each group. Mice were given a day off (day 7), then returned to self-administration in daily sessions. Note the number of infusions goes down in the AST-004 treated mice, while saline treated mice increased infusions.
We used procedures adapted from our recently published work that describes i.v. cocaine self-administration in fully fed mice (6, 7). Male C57BL/6J mice (6 to 7-week-old) purchased from Jackson labs and were kept on a 12/12-hour reverse light-dark cycle (lights off at 0900 h) with ad libitum access to food and water. Cocaine hydrochloride (generously provided by the NIDA drug supply program, Bethesda, MD) was dissolved in sterile physiological saline (NaCl 0.9%). Cocaine was prepared at a concentration that delivers 0.5 mg/kg/12 μL per infusion, based on a typical weight of a young adult mouse (28 g). Mice were implanted with an indwelling catheter in the right jugular vein. […]

[8] = 20 min treatment, normal glucose medium

| SMILES | reduction of stroke infarction volume by AST-004 after antagonist pretreatment ([1]; pretreatment with the A3R antagonist) | ATP levels, control cells (scrambled shRNA), galactose medium ([2]; 20 min treatment, glucose-free, galactose supplemented media) | ATP levels, astrocytes with reduced levels of GLUD1 (GLUD1 shRNA) [2, 8] | ATP levels, control cells (scrambled shRNA) [2, 8] | ATP levels, astrocytes with reduced GLUD1 levels, galactose medium ([2]; in the presence of galactose) | TBI induced increases in GFAP expression [3] | photon flux levels (ATP-production in astrocytes) [4] | neuroprotection after traumatic brain injury (TBI) ([3]; mice) | stroke infarction volume ([1]; 0.2 mg/kg, intraperitoneally within 30 min post stroke, 24 hours post-stroke, vs vehicle) | ATP production (OCR revealed by oligomycin) ([5]; 400 nM) | basal respiration (OCR) ([5]; after addition to the bath at 15 minutes, vs control injections) | maximal respiration (OCR after FCCP) ([5]; uncoupling by FCCP) | integrated Ca2+ response ([6]; astrocytes cultured from mouse, rat, pig and human brain tissue) | intracellular Ca2+ ([6]; cultured astrocytes, Cal520 dye) | stimulation of Ca2+ release under pertussis toxin treatment ([6]; pertussis toxin treatment, consistent with Gq-coupling) | cocaine self-administration ([7]; FR3, 2-hr daily sessions, vs saline) | cocaine intake normalized to baseline ([7]; over 2 weeks, n=5) |
| --- | --- | --- | --- | --- | --- | --- | --- | --- | --- | --- | --- | --- | --- | --- | --- | --- | --- |
| CCCOC(=O)c1c(-c2ccccc2)nc(CC)c(C(=O)SCC)c1CCC [MRS1523, 3-Propyl-6-ethyl-5-[(ethylthio)carbonyl]-2 phenyl-4-propyl-3-pyridine carboxylate, reference compound] | blocked | – | – | – | – | – | – | – | – | – | – | – | – | – | – | – | – |
| CSc1nc(N)c2ncn([C@H]3[C@H](O)[C@H](O)[C@]4(COP(=O)(O)OP(=O)(O)O)C[C@H]34)c2n1 [MRS2365] | – | significantly increased | not responsive | significantly increased | similarly non-responsive | reduced | – | – | – | – | – | – | – | – | – | – | – |
| CSc1nc(N)c2ncn([C@H]3[C@H](O)[C@H](O)[C@]4(CO)C[C@H]34)c2n1 [AST-004] | – | – | – | increased ATP levels in a GLUD1-dependent manner | – | reduced | significantly higher | neuroprotective | significantly reduced | significantly greater | increased | significantly higher | dose-dependent | stimulates intracellular Ca2+ | not blocked | significantly reduces | approximately 60 % of baseline |
